Laboratory results from US20220193081A1 (Ellamed IP & Services PTE. LTD., priority 2019, published 2022).
Like-named read-outs stand apart in the source and are kept apart here. Marks after values point to notes of the source that are not given here.

How the values were obtained:
[1] = HPLC assay on storage of sildenafil citrate with equal concentration of sucralose in pH adjusted 50% ethanol (Example 2); assay type: physicochemical; settings: for concentration of sildenafil by HPLC / Impurity B / Impurity D / sildenafil assay: 21 mg/ml; for Impurity B / Impurity D / sildenafil assay: 25° C., Day 285
Procedure: At room temperature, a phosphate buffer was prepared by weighing 3.9 g of NaH2PO4.2H2O into a 500 mL volumetric flask and adding approximately 300 mL of purified water until the phosphate fully dissolved. The pH was then adjusted to 7 with the introduction of NaOH and dilute to the requisite volume by the further addition of purified water.
A 50% ethanol mixture was prepared by introducing either purified water, taken from a MilliQ™ unit or phosphate buffer, to equivalent volumes of Ph.Eur. grade absolute alcohol. The pH of the resultant mixture was then adjusted by using either NaOH 1N solutions and/or Sodium Citrate 1N solutions to reach predetermined pH values.
Samples of sucralose were then dissolved in the pH adjusted 50% ethanol, whilst stirred with a magnetic stirrer and a needle, to a predetermined concentration. […] After preparation, the solutions were each filtered through PDVF 0.22 micro filter of 13 mm in size and placed in polypropylene containers of adequate volume.
Before being placed on storage, and at time points 7 and 42 days, the concentration of sildenafil in the mixture was assayed using HPLC. The samples were then stored at either −20° C., 2-8° C. or 25° C. for periods of up to 42 days. Periodically, the samples were visually inspected for evidence of precipitation or crystallization. […]
The samples of 21 mg/ml at a pH of 5.6 were maintained in stability testing at 25° C. for a total of 285 days.

[2] = Maximum dissolution study in 50% aqueous ethanol, visual inspection (Example 5); assay type: physicochemical; settings: pH 5.5, NaOH
Procedure: (§1) Before being placed on storage, and at time points 7, 42 days and 2 months, the concentration of sildenafil in the mixtures were assayed using HPLC. The samples were then stored at either −20° C., 2-8° C. or 25° C. for periods of up to 2 months. Periodically, the samples were visually inspected for evidence of crystallization.

[3] = Maximum dissolution study in 50% aqueous ethanol, HPLC assay (Example 5); assay type: physicochemical; settings: added until precipitation occurred, pH 5.5, NaOH
Procedure: as §1

[4] = cited from earlier work
[5] = tablets or oral suspension; cited from earlier work
[6] = EMEA CHMP Assessment Report for VIZARSIN
[7] = Jordanian Pharmaceutical Manufacturing Co.

CCCc1nn(C)c2c(=O)nc(-c3cc(S(=O)(=O)N4CCN(C)CC4)ccc3OCC)[nH]c12.O=C(O)CC(O)(CC(=O)O)C(=O)O [sildenafil citrate, 1-[[3-(4,7-Dihydro-1-methyl-7-oxo-3-propyl-1H-pyrazolo[4,3-d]pyrimidin-5-yl)-4-ethoxyphenyl]sulfonyl]-4-methylpiperazine citrate salt]
concentration of sildenafil by HPLC ([1]; pH 5.29, NaOH, 50% ethanol/phosphate buffer, 2-8 ° C., Day 7): 20970 µg/mL | concentration of sildenafil by HPLC ([1]; pH 5.29, NaOH, 50% ethanol/phosphate buffer, 25 ° C., Day 7): 20980 µg/mL | concentration of sildenafil by HPLC ([1]; pH 5.29, NaOH, 50% ethanol/phosphate buffer, Day 0): 20940 µg/mL | concentration of sildenafil by HPLC ([1]; pH 5.5, NaOH, 2-8 ° C., Day 7): 20860 µg/mL | concentration of sildenafil by HPLC ([1]; pH 5.5, NaOH, 25 ° C., Day 7): 20970 µg/mL | concentration of sildenafil by HPLC ([1]; pH 5.5, NaOH, Day 0): 21110 µg/mL | concentration of sildenafil by HPLC ([1]; pH 5.5, Sodium Citrate, 2-8 ° C., Day 7): 21140 µg/mL | concentration of sildenafil by HPLC ([1]; pH 5.5, Sodium Citrate, 25 ° C., Day 7): 21220 µg/mL | concentration of sildenafil by HPLC ([1]; pH 5.5, Sodium Citrate, Day 0): 21320 µg/mL | concentration of sildenafil by HPLC ([1]; pH 5.6, NaOH, 2-8 ° C., Day 7): 21040 µg/mL | concentration of sildenafil by HPLC ([1]; pH 5.6, NaOH, 2-8 ° C., Day 42): 21430 µg/mL | concentration of sildenafil by HPLC ([1]; pH 5.6, NaOH, 25 ° C., Day 7): 21020 µg/mL | concentration of sildenafil by HPLC ([1]; pH 5.6, NaOH, 25 ° C., Day 42): 21320 µg/mL | Impurity B ([1]; pH 5.6, NaOH): 0.00 | Impurity D ([1]; pH 5.6, NaOH): 0.02 | sildenafil assay ([1]; pH 5.6, NaOH): 21.16 | concentration of sildenafil by HPLC ([1]; pH 5.6, NaOH, 50% ethanol/phosphate buffer, 2-8 ° C., Day 7): 20930 µg/mL | concentration of sildenafil by HPLC ([1]; pH 5.6, NaOH, 50% ethanol/phosphate buffer, 25 ° C., Day 7): 20990 µg/mL | concentration of sildenafil by HPLC ([1]; pH 5.6, NaOH, 50% ethanol/phosphate buffer, Day 0): 20970 µg/mL | concentration of sildenafil by HPLC ([1]; pH 5.6, NaOH, Day 0): 21200 µg/mL | concentration of sildenafil by HPLC ([1]; pH 5.6, Sodium Citrate, 2-8 ° C., Day 7): 20990 µg/mL | concentration of sildenafil by HPLC ([1]; pH 5.6, Sodium Citrate, 2-8 ° C., Day 42): 21410 µg/mL | concentration of sildenafil by HPLC ([1]; pH 5.6, Sodium Citrate, 25 ° C., Day 7): 21060 µg/mL | concentration of sildenafil by HPLC ([1]; pH 5.6, Sodium Citrate, 25 ° C., Day 42): 21270 µg/mL | Impurity B ([1]; pH 5.6, Sodium Citrate): 0.01 | Impurity D ([1]; pH 5.6, Sodium Citrate): 0.02 | sildenafil assay ([1]; pH 5.6, Sodium Citrate): 21.14 | concentration of sildenafil by HPLC ([1]; pH 5.6, Sodium Citrate, Day 0): 21260 µg/mL | concentration of sildenafil by HPLC ([1]; pH 5.8, NaOH, 2-8 ° C., Day 7): 20950 µg/mL | concentration of sildenafil by HPLC ([1]; pH 5.8, NaOH, 25 ° C., Day 7): 21730 µg/mL | concentration of sildenafil by HPLC ([1]; pH 5.8, NaOH, Day 0): 21150 µg/mL | concentration of sildenafil by HPLC ([1]; pH 5.8, Sodium Citrate, 2-8 ° C., Day 7): 20960 µg/mL | concentration of sildenafil by HPLC ([1]; pH 5.8, Sodium Citrate, 25 ° C., Day 7): 21070 µg/mL | concentration of sildenafil by HPLC ([1]; pH 5.8, Sodium Citrate, Day 0): 21080 µg/mL | concentration of sildenafil by HPLC ([1]; pH 6.01, NaOH, 50% ethanol/phosphate buffer, 2-8 ° C., Day 7): 16220 µg/mL | concentration of sildenafil by HPLC ([1]; pH 6.01, NaOH, 50% ethanol/phosphate buffer, 25 ° C., Day 7): 18020 µg/mL | concentration of sildenafil by HPLC ([1]; pH 6.01, NaOH, 50% ethanol/phosphate buffer, Day 0): 20770 µg/mL | breakdown products ([1]; any of the conditions tested, up to 42 days): No breakdown products were identified | visual inspection for crystallization ([2]; Day 0 51.65 mg/ml, without sucralose, 2-8° C.): Prec. | visual inspection for crystallization ([2]; Day 0 51.65 mg/ml, without sucralose, −20° C.): Prec. | visual inspection for crystallization ([2]; Day 0 82.79 mg/ml, with sucralose, 2-8° C.): Prec. | visual inspection for crystallization ([2]; Day 0 82.79 mg/ml, with sucralose, −20° C.): Prec. | visual inspection for crystallization ([2]; Day 0 123.95 mg/ml, with sucralose, 25° C. (single cell in the row)): Prec. | Day 0 concentration sildenafil ([3]; with sucralose (second sample)): 82.79* mg/ml | Day 0 concentration sildenafil ([3]; with sucralose (third sample)): 123.95* mg/ml | Day 0 concentration sildenafil ([3]; without sucralose (first sample)): 51.65 mg/mL | solubility in acetone [4, 6]: insoluble | solubility in chloroform [4, 6]: insoluble | solubility in dimethyl sulfoxide (DMSO) [4, 6]: soluble | solubility in ethanol [4, 6]: insoluble | solubility in methanol [4, 6]: soluble | solubility in ethanol [4, 7]: ~1000 µg/mL | times less soluble in ethanol than in water [4, 7]: about 3.5 times | absolute bioavailability [5]: about 41%
